Assay results published in US11840537B2, “Preparation and application of a 5-bromoquinazoline derivative” (Hefei University of Technology, priority 2020, dated 2023).
Structures can show the parent of a compound that is named as a salt.

How the values were obtained:
Type in all cases: cell-based
leukemia HL-60 = experiment: Anti-cancer activity, leukemia HL-60 cells
[1] = tested on: hepatoma carcinoma cell SMMC-7721; experiment: Anti-cancer activity, hepatoma carcinoma cell SMMC-7721; conditions: liver cancer (SMMC-7721)
colon cancer SW480 = experiment: Anti-cancer activity, colon cancer SW480 cells
breast cancer cell MCF-7 = experiment: Anti-cancer activity, breast cancer cell MCF-7; conditions: breast cancer cells (MCF-7)

Measured: strong inhibitory activity (ED50)

COC(=O)C1(Nc2nc(=O)[nH]c3ccc(Br)cc23)c2cc(Br)ccc2NC12C(=O)Nc1ccc(Br)cc12 (stereo not shown) [compound (I), 3-[5, 5′-dibromo-3-((6-bromo-2-oxo-1,2-dihydroquinazoline-4-amino)-2′-oxo (2,3′-spirobisindole)]methyl formate]
< 10.0 µg/mL: all assays above
